Assays:
[1] = Single dose AR-42 plasma and tissue pharmacokinetics in mouse; type: in vivo; conditions: for Plasma exposure: tumor-free mice
Description: FIG. 1A is a graph showing results of a single dose AR-42 plasma and tissue pharmacokinetic study. Tumor-free […] mice were administered a single dose of 10 mg/kg, 20 mg/kg or 50 mg/kg AR-42 (n=3) and plasma (dashed) and gastrocnemius (solid) tissue analyzed for AR-42 content at different times using LC-MS/MS analyses according to Materials and Methods (Mean±SD). FIG. 1B is a graph showing AR-42 dose-response. Starting six days after C-26 cell injection, animals received vehicle or AR-42 orally at 10 or 20 mg/kg daily or 50 mg/kg every other day for 13 days (n=4-6). Day 18 bodyweights compared to Day 0, corrected for tumor mass according to the Materials and Methods. Bars represent mean±SD. *p<0.05, ****p<0.0001 versus tumor-bearing vehicle-treated controls, Tukey's multiple comparison test. FIG. 1C is a table showing AR-42's in vitro human HDAC inhibition profile determined using recombinant enzymatic assays. […] Longitudinal mean bodyweights per treatment group are presented as a percent change from pre-study body weights. Tumor-free animals (circles), tumor-bearing animals (bars). Inset: terminal tumor volumes (mean+SD, n=5-6 per group).
Pharmacokinetic studies were performed as previously described (Cheng H et al. AAPS J. 2016 18(3):737-45).
Pharmacokinetic studies were performed as previously described (Cheng H, et al. AAPS J. 2016 18(3):737-45) with the following modifications. Seven week-old, male, tumor-free CD2F1 mice (n=3 per dose and time point) were administered single oral doses of 10, 20 and 50 mg/kg AR-42 and then sacrificed 0.25, 4 and 24 hours later. Fifty mg of gastrocnemius muscle tissue was flash frozen in 2 mL Beadblaster™ 24 (MIDSCl; St. Louis, Mo.) tubes and stored at −80° C. Samples were homogenized for 6-cycles using a Beadblaster 24 with analytical standards in 1 mL methanol and then centrifuged at 13,000 rpm (4° C.) for 10 min. Supernatants were transferred to glass tubes, dried under nitrogen, then reconstituted in 200 μL 40% methanol/0.1% formic acid. Plasma preparation and LC-MS/MS analyses were performed as previously described (Sborov D W, et al. Leuk Lymphoma 2017 58(10):2310-8). Mouse plasma and muscle pharmacokinetic parameters were estimated as previously described with the exception of Cavg which was calculated as AUCall/[Dosing Interval(h)].

[2] = oral gavage every other day; cited from earlier work
[3] = Sborov et al. 2017; cited from earlier work

SMILES: CC(C)[C@H](C(=O)Nc1ccc(C(=O)NO)cc1)c1ccccc1 [AR-42, (S)—N-hydroxy-4-(3-methyl-2-phenylbutanamido)benzamide]
- concentration at 4 h ([1]; male, mouse, in vivo, single oral dose 10 mg/kg, remained above for 4 hours, read-out: gastrocnemius muscle concentrations): > 700 nM
- mouse plasma exposure at 50 mg/kg relative to well tolerated plasma exposure in humans ([1]; oral 50 mg/kg in mice versus 8.5 μM*h in humans): 8.7 fold
- Plasma exposure ([1]; single oral dose 10 mg/kg): 10.9 µM·h
- Plasma exposure ([1]; single oral dose 50 mg/kg): 74.3 µM·h
- maximally tolerated dose in mice [2]: 50 mg/kg
- well tolerated plasma exposure in humans [3]: 8.5 µM·h

Source: patent US11529323B2 (priority 2017, dated 2022)
